The results in this text go back to US8980564B2, “Predictive markers for taxane responsiveness and methods of use thereof” (The Governors of the University of Alberta, priority 2009, dated 2015).

For one assay, the system named is Bad:Bcl-XL. The experiment in a line: Co-immunoprecipitation of Bad with Bcl-XL. As to conditions: 25 nM paclitaxel 48 h or 2.5 uM STS 4 hours.
The next assay has as its system Bad. The experiment in a line: Subcellular fractionation, Bad localization by Western blotting. The following applies: MCF-7, MDA-MB-468, SKBR-3; 25 nM paclitaxel 48 h or 2.5 uM STS 4 hours. In general terms: A western blot detects proteins with antibodies after separation by electrophoresis.
The test system of another assay is breast cancer. The experiment in a line: Survival analysis of breast cancer patients after adjuvant docetaxel-based chemotherapy, stratified by Bad staining. It counts as in vivo, human. The following applies: 180 women, multivariate modeling. As for the experimental part: Tissue micoarrays were made from formalin fixed breast tissues in triplicate 0.6 mm cores using the TMArrayer™. Tissues on slides were deparaffinized in xylene and rehydrated in decreasing concentrations of ethanol to water. Endogenous peroxidase was quenched in 0.3% H2O2 for 10 minutes. For antigen retrieval, slides were placed in boiling citrate buffer pH 6.0 for 10 minutes followed by rinsing in water for 10 minutes. Tissues were incubated with the BAD antibody (Cell Signaling Technology) at a dilution of 1/25 at 4° C. overnight in a humidified container or with Bik antibody (Cell signaling Technology) at a dilution of 1/50 at room temperature in a humidified container. Slides were washed 2 times in PBS for 5 minutes. For the secondary antibody, Anti-Rabbit EnVision+System-HRP (Dako) was incubated on the tissues at room temperature for 30 minutes. Slides were washed 2 times in PBS and then tissues were incubated with DAB (Dako) for 10 minutes. Slides were rinsed in water for 10 minutes followed by a soak in 1% Copper Sulfate for 5 minutes. Haematoxylin was used to counterstain the tissues. […] Staining intensity was scored as 0 (absent), 1 (weak), or 2 (strong). […] Using ROC, an optimized cutpoint of 0.57 was chosen for Bad expression and an optimized cutpoint of 0.1 was chosen for Bik expression, and patients were analyzed based on this cutpoint. […]

For a further assay, the system named is breast cancer cell lines. The experiment in a line: Apoptosis assays (TMRE loss, annexin V) in a panel of five breast cancer cell lines. It counts as cell-based, human. The following applies: 25 nM paclitaxel; TMRE loss and annexin V positivity. As for the experimental part:
(§1) Apoptosis assays were performed as described previously (Czernick et al., 2009). Briefly, breast cancer cell lines were treated with dimethyl sulfoxide (DMSO) vehicle control or 25 nM paclitaxel, which corresponds to a clinically relevant dose (Blagosklonny and Fojo, 1999; Jordan et al., 1996). After treatment, samples were divided and analyzed for apoptosis. Apoptosis was evaluated by fluorescence-activated cell sorting (FACS) analysis using the following apoptotic markers: (i) mitochondrial dysfunction [loss of mitochondrial electrochemical potential and decreases in tetramethyl rhodamine ethyl ester (TMRE)]. Percent specific TMRE loss was determined as (% TMRE negative cells of treated sample−% TMRE negative cells of untreated control sample); (ii) increases in phosphatidylserine externalization (Annexin V). Percent specific annexin V positivity was determined as (% annexin V positive cells of treated sample−% annexin V positive cells of untreated control sample).
To investigate which BH3-only proteins are involved in paclitaxel-induced apoptosis, a panel of five validated breast cancer cell lines acquired from Dr. Gordon Mills (M.D. Anderson Cancer Center, U. of Texas) was analyzed; validated cells were used to avoid any controversy with respect to lineage authenticity (Graham et al., 1986; Osborne et al., 1987). […]

Another assay concerns MCF-7 cell line. The experiment in a line: Apoptosis assays (TMRE loss, annexin V) in MCF-7. It counts as cell-based, human. As to conditions: 25 nM paclitaxel. The procedure:
as §1
Each cell line was treated with 25 nM of paclitaxel, which induces a clinically relevant intracellular accumulation of the drug in tissue culture conditions (Derry et al., 1998; Jordan et al., 1996). After the indicated amount of time, apoptosis was assessed by measuring mitochondrial electrochemical potential loss (TMRE loss) and phosphatidyl serine externalization (annexin V positivity) (FIG. 1A).

A further assay has as its system Bcl-XL. The experiment in a line: Bcl-XL protein level in treated cells. It counts as cell-based, human. The following applies: paclitaxel-treated cells. An excerpt:
In fact, mitotic arrest-mediated repression of Bcl-XL contributes to cell death via liberation of Bax (Upreti et al., 2008).

The test system of a further assay is MCF-7 cells. The experiment in a line: DNA content analysis by propidium iodide staining (cell cycle). It counts as cell-based, human. As to conditions: up to 24 hours in paclitaxel. As for the experimental part:
Samples were fixed at −20° C. in ice-cold 70% ethanol for a minimum of 24 hours. After fixation, the samples were stained with 20 ug/ml propidium iodide, 2 mg/ml RNase, 0.1% Triton X-100 in PBS for 30 minutes at 4° C. Samples were analyzed in the FL-2 channel on the FACScan as previously described, with the exception that doublet discrimination was achieved by gating on the smaller width G2 cells as determined by analysis of pulse width versus pulse area (Goping et al., 2008).
To verify that the increased proportion of cells in G1 was due to delayed G1 exit and not increased G1 entry, G1 entry was inhibited by arresting cells at G2/M with paclitaxel. […] In time course analyses, the progression of cells from G1 through S to G2/M was delayed in Bad-depleted cells relative to control transfected cells. […] Based on these observations, and again while not wishing to be bound by theory, it was concluded that Bad contributes to cell cycle progression by facilitating exit from the G1 phase of the cell cycle and is supported by a similar role of Bad in rat fibroblasts (Chattopadhyay et al., 2001).

In the case of `CN[C@@H]1C[C@H]2O[C@@](C)([C@@H]1OC)n1c3ccccc3c3c4c(c5c6ccccc6n2c5c31)C(=O)NC4` [STS, staurosporine], in the assay with Bad:Bcl-XL, the “association of Bad and Bcl-XL” value is “remained as a complex”. Besides, the “mitochondrial translocation of Bad” value in the assay on Bad is “migrated to mitochondria”.
In the case of `CC(=O)O[C@@]12CO[C@@H]1C[C@H](O)[C@@]1(C)C(=O)[C@H](O)C3=C(C)[C@@H](OC(=O)[C@H](O)[C@@H](NC(=O)OC(C)(C)C)c4ccccc4)C[C@@](O)([C@@H](OC(=O)c4ccccc4)[C@H]21)C3(C)C` [docetaxel], the “hazard ratio of relapse, low Bad tumour staining intensity” value with breast cancer (95% CI 1.05-3.66) is reported as 1.96. Further, the “death hazard ratio, low Bad tumour staining intensity” value in the assay with breast cancer (95% CI 1.05-3.66 as printed) stood at 3.65.
On to `CC(=O)O[C@H]1C(=O)[C@@]2(C)[C@H]([C@H](OC(=O)c3ccccc3)[C@]3(O)C[C@H](OC(=O)[C@H](O)[C@@H](NC(=O)c4ccccc4)c4ccccc4)C(C)=C1C3(C)C)[C@]1(OC(C)=O)CO[C@@H]1C[C@@H]2O` [paclitaxel], for which the “relative paclitaxel sensitivities of the breast cancer cell lines, rank order of increasing sensitivity” value with breast cancer cell lines is “MDA-MB-231, T47-D, MDA-MB-468, MCF-7 and SKBR-3”. Also, in the assay on MCF-7 cell line (MCF-7), the “cell death based on mitochondrial dysfunction and cellular morphology” value is “induced significant death”; the “loss of mitochondrial potential (TMRE loss)” value is listed as “robust loss of mitochondrial potential”. Besides, in the assay on MCF-7 cell line (MCF-7, cells do not express caspase 3), the “phosphatidyl serine externalization (annexin V positivity)” value is given as “blunted”. In addition, in the assay on Bcl-XL, the “levels of Bcl-XL protein” value was “reduced levels of Bcl-XL protein”. Further, in the assay with MCF-7 cells, the “mitotic arrest (G2/M)” value is “induced mitotic arrest”. The “association of Bad and Bcl-XL” value with Bad:Bcl-XL is “decreased association of Bad and Bcl-XL”. Moreover, the “mitochondrial translocation of Bad” value with Bad was “did not induce mitochondrial translocation of Bad”.
